Assay results published in patent publication US12083105B2, “Compositions and methods for treating adult-onset neuronal ceroid lipofuscinosis (Kufs disease)” (CORNELL UNIVERSITY, priority 2020, dated 2024).

Key:
Format in all cases: cell-based, human
SNAP-25 = SNAP-25 turnover in ANCL iNs by cycloheximide chase; details: 72 h pretreatment, cycloheximide chase in presence of chelator, FIG. 7D
Protocol: ANCL patient-derived fibroblasts were treated with 200 μM of L1 or Dfx, or vehicle (0.1% DMSO=Control) for 72 h, before measuring the UV-Vis absorbance spectra of immunoprecipitated CSPα eluted by trypsinization (solid lines). Spectra were re-read after 10 min of 0.1 N HCl treatment (dashed lines). The experiments shown in FIGS. 7B-7I, were conducted using ANCL fibroblasts converted to iNs using BAM+ND1 technique. […] Quantitative immunoblotting was used to measure levels of oligomerized and fully palmitoylated CSPα as well as total SNAP-25. Oligo=oligomers; Palm=palmitoylated. […] The interaction of CSPα with SNAP-25 in ANCL iNs was measured by immunoprecipitating SNAP-25 followed by quantitative immunoblotting of co-immunoprecipitated CSPα (normalized to SNAP-25 IP). Note that mainly CSPα monomers and not oligomers were detected bound to SNAP-25. Control=control sham IP without IgG. […] Turnover of SNAP-25 was determined by cycloheximide chase, while maintaining the iron-chelators or vehicle in the medium. […] In the experiments shown in FIGS. 7E-7G, ANCL iNs treated with L1, Dfx, or vehicle for 56 d and analyzed. […] The levels of lipofuscin were determined by ELISA. In the experiments shown in FIGS. 7H-7I 56 day old untreated ANCL iNs were treated with L1, Dfx, or vehicle, and analyzed. […]

ANCL iNs = test: Lipofuscin ELISA in ANCL iNs; details: compared to control; for lipofuscin ELISA signal: ANCL iNs treated for 56 d (prevention), FIG. 7G; for levels of lipofuscin (ELISA): added to ANCL iNs after 56 days of lipofuscin accumulation, 0, 7, 14, 21 d of treatment, FIG. 7I
Protocol: (§1) ANCL patient-derived fibroblasts were treated with 200 μM of L1 or Dfx, or vehicle (0.1% DMSO=Control) for 72 h, before measuring the UV-Vis absorbance spectra of immunoprecipitated CSPα eluted by trypsinization (solid lines). Spectra were re-read after 10 min of 0.1 N HCl treatment (dashed lines). The experiments shown in FIGS. 7B-7I, were conducted using ANCL fibroblasts converted to iNs using BAM+ND1 technique. […] Quantitative immunoblotting was used to measure levels of oligomerized and fully palmitoylated CSPα as well as total SNAP-25. Oligo=oligomers; Palm=palmitoylated. […] The interaction of CSPα with SNAP-25 in ANCL iNs was measured by immunoprecipitating SNAP-25 followed by quantitative immunoblotting of co-immunoprecipitated CSPα (normalized to SNAP-25 IP). Note that mainly CSPα monomers and not oligomers were detected bound to SNAP-25. Control=control sham IP without IgG. […] Turnover of SNAP-25 was determined by cycloheximide chase, while maintaining the iron-chelators or vehicle in the medium. […] In the experiments shown in FIGS. 7E-7G, ANCL iNs treated with L1, Dfx, or vehicle for 56 d and analyzed. […] The levels of lipofuscin were determined by ELISA. In the experiments shown in FIGS. 7H-7I 56 day old untreated ANCL iNs were treated with L1, Dfx, or vehicle, and analyzed. […] Data are from FIG. 7A representative of n=4, FIG. 7B n=4, FIG. 7C n=4, FIG. 7D n=7, FIG. 7F n=4, FIG. 7G n=4, FIG. 7H n=6, FIG. 7I n=3. In FIGS. 7B-7C and FIGS. 7F-7G *P<0.05; **P<0.01; ****P<0.0001 by two-tailed Student's t-test. #P<0.05 by Mann-Whitney-Wilcoxon U test. In FIG. 7D-7C and FIGS. 7H-7I **P<0.01; ***P<0.001; ****P<0.0001 by two-way ANOVA; ##P<0.01; ###P<0.001; ####P<0.0001 by Tukey's multiple comparisons test.
iNs from each well of a 6 well dish were solubilized in 100 μl PBS with 0.1% Triton X-100 for 1 h at 4° C. Post nuclear supernatant collected by centrifugation at 1000 gav for 15 min was used for the assay. These samples were analyzed for lipofuscin content using human lipofuscin competitive ELISA (MyBiosource; MBS7217173). Following the colorimetric reaction, optical density at 450 nm was read from the standard and the sample wells using Synergy H1 Hybrid Reader (BioTek).
Effect of iron chelators on the accumulation of lipofuscin was monitored by ELISA for lipofuscin or based on lipofuscin autofluorescence. […] Effect of iron chelators on the accumulation of ATP5G was also studied.
As a treatment paradigm, iron-chelators were also added post-accumulation of lipofuscin. L1 and Dfx were added to ANCL iNs after 56 days of lipofuscin accumulation, and levels of ATP5G and lipofuscin were compared over the subsequent 3 weeks.

CSPα = CSPα oligomerization and palmitoylation in ANCL patient-derived induced neurons (quantitative immunoblotting); details: ANCL iNs; 72 h; compared to vehicle alone; FIG. 7B
Protocol: as §1
For pharmacological iron-chelation, deferiprone (L1; 200 μM; Biotang), deferoxamine mesylate (Dfx; 200 μM; Calbiochem), or 0.1% DMSO as vehicle control were added to the respective culture media of primary cortical neurons, fibroblasts, or iNs. When these media were changed, the fresh media contained identical concentration of the respective iron-chelator or vehicle.
Fibroblasts from an affected person carrying the L116Δ mutation were obtained, and an age-and-sex matched unaffected fibroblast line was frozen, thawed and cultured in parallel to maintain similar passage numbers. Fibroblasts were maintained in DMEM supplemented with 10% fetal bovine serum supplemented with L-glutamine, penicillin, and streptomycin. […]
For SDS-PAGE, 10-15% Laemmli gels (10.3% T and 3.3% C) were used to separate proteins on Bio-Rad apparati. […] Immunoblots were washed 5× with TBS-T and dried, then scanned on Odyssey CLx (LI-COR) and quantified using Image-Studio software (LI-COR). […]

SMILES	turnover of SNAP-25 (SNAP-25)	lipofuscin ELISA signal (ANCL iNs)	levels of lipofuscin (ELISA) (ANCL iNs)	oligomerization of CSPα (CSPα)	palmitoylation of CSPα (CSPα)
CC(=O)N(O)CCCCCNC(=O)CCC(=O)N(O)CCCCCNC(=O)CCC(=O)N(O)CCCCCN [Dfx, N′-[5-(Acetyl-hydroxy-amino)pentyl]-N-[5-[3-(5-aminopentyl-hydroxy-carbamoyl)propanoylamino]pentyl]-N-hydroxy-butane diamide]	decreased turnover	significant reduction	reduced to the levels observed in the prevention experiments	reduced the oligomerization	improved palmitoylation
Cc1c(O)c(=O)ccn1C [L1, 3-hydroxy-1,2-dimethyl-4(1H)-pyridone]	decreased turnover	significant reduction	reduced to the levels observed in the prevention experiments	reduced the oligomerization	improved palmitoylation
